Molecules are shown by their SMILES. Calls of active or inactive are those of the source. No cut-off for these calls is given here.

The target in experiment [1] is Aryl hydrocarbon receptor nuclear translocator/Endothelial PAS domain-containing protein 1 (Homo sapiens) (UniProt P27540+Q99814). The conditions noted are these: filed as agonist, dose 10.0 µM.
The target in experiment [2] is Endothelial PAS domain-containing protein 1 (Homo sapiens) (UniProt Q99814). Kind of experiment: Synergistic agonist activity at human HIF-2alpha expressed in human Hep3B cells assessed as induction of EPO transcription at 5 uM pretreated with FG4592 followed by compound addition and measured after 12 hrs by qRT-PCR analysis. The conditions noted are these: filed as agonist. The experiment is classed as cell-based.
Sequence of Endothelial PAS domain-containing protein 1 (Homo sapiens) (Q99814 whole entry, the tested form may be a part): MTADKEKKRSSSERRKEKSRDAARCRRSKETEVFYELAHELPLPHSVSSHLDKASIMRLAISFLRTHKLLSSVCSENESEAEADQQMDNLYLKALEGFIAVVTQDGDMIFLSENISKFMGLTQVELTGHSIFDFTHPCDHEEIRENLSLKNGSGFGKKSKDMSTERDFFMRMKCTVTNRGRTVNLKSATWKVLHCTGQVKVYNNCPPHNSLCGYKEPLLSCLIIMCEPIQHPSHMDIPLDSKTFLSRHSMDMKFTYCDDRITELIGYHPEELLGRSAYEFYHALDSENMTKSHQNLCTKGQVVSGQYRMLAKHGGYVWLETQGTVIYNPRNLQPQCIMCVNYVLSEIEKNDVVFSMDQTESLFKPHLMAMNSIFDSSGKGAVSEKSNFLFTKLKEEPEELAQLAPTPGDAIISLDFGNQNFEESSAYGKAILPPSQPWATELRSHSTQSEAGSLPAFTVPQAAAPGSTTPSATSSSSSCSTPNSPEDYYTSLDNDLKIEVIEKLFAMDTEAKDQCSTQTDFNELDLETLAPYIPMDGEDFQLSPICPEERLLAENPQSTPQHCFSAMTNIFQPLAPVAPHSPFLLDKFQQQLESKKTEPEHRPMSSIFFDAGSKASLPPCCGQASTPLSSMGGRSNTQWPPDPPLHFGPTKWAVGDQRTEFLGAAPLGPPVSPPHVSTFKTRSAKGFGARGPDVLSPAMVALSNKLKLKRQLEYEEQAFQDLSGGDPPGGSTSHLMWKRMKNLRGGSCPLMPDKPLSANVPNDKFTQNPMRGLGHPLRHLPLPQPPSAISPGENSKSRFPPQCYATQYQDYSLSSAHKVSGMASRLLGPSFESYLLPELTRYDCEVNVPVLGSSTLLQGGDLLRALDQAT

Experiment [3] has the same target. Briefly: Agonist activity at human HIF-2alpha expressed in human 786-0 cells assessed as increase in GLUT1 transcription level at 20 uM incubated for 24 hrs by RT-PCR analysis relative to control. The experiment is classed as cell-based. The conditions noted are these: filed as agonist.
For experiment [4] the target is unchanged. Briefly: Agonist activity at human HIF-2alpha expressed in human 786-0 cells assessed as increase in PGK1 transcription level at 20 uM incubated for 24 hrs by RT-PCR analysis relative to control. The experiment is classed as cell-based. Particulars: filed as agonist.
Experiment [5] shares this target. Briefly: Agonist activity at human HIF-2alpha expressed in human 786-0 cells assessed as increase in VEGFA transcription level at 20 uM incubated for 24 hrs by RT-PCR analysis relative to control. The experiment is classed as cell-based. The conditions noted are these: filed as agonist.
The target is the same in experiment [6]. Kind of experiment: Agonist activity at human HIF-2alpha expressed in human 786-0 cells assessed as increase in NDRG1 transcription level at 20 uM incubated for 24 hrs by RT-PCR analysis relative to control. The experiment is classed as cell-based. The conditions noted are these: filed as agonist.
For experiment [7] the target is unchanged. Briefly: Agonist activity at human HIF-2alpha expressed in human 786-0 cells assessed as increase in NDRG1 transcription level at 2 uM incubated for 24 hrs by RT-PCR analysis relative to control. The experiment is classed as cell-based. The conditions noted are these: filed as agonist.
Experiment [8] shares this target. Briefly: Agonist activity at human HIF-2alpha expressed in human 786-0 cells assessed as increase in NDRG1 transcription level at 0.2 uM incubated for 24 hrs by RT-PCR analysis relative to control. The conditions noted are these: filed as agonist. The experiment is classed as cell-based.
The target is the same in experiment [9]. Kind of experiment: Agonist activity at human HIF-2alpha expressed in human 786-0 cells assessed as increase in VEGFA transcription level at 0.2 uM incubated for 24 hrs by RT-PCR analysis relative to control. The experiment is classed as cell-based. Particulars: filed as agonist.
For experiment [10] the target is unchanged. Kind of experiment: Agonist activity at human HIF-2alpha expressed in human 786-0 cells assessed as increase in VEGFA transcription level at 2 uM incubated for 24 hrs by RT-PCR analysis relative to control. The experiment is classed as cell-based. Particulars: filed as agonist.

Sequence of Aryl hydrocarbon receptor nuclear translocator/Endothelial PAS domain-containing protein 1 (Homo sapiens) (P27540 2-789 limits assumed): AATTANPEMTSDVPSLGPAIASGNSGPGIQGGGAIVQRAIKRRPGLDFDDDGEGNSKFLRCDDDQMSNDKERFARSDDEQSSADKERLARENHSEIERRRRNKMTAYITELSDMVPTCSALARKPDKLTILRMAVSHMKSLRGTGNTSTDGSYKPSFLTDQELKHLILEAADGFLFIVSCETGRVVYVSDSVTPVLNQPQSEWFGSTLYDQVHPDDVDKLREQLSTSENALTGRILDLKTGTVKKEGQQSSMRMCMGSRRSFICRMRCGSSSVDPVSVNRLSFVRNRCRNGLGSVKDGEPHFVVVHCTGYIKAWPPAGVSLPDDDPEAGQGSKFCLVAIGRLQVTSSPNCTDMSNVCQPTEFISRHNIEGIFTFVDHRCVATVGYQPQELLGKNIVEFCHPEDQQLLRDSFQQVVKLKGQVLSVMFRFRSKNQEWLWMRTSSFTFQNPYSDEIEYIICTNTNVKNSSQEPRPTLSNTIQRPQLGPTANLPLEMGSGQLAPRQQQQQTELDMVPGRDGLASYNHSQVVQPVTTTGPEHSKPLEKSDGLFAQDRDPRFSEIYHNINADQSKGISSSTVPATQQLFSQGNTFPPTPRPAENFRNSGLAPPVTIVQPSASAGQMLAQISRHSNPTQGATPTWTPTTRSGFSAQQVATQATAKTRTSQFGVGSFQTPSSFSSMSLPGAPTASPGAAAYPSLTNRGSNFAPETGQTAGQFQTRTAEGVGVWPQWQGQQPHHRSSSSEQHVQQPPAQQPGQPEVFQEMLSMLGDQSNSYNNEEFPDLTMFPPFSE
Sequence of Aryl hydrocarbon receptor nuclear translocator/Endothelial PAS domain-containing protein 1 (Homo sapiens) (Q99814 whole entry partner, the tested form may be a part): as the sequence (Q99814 whole entry, the tested form may be a part) above

One may read the ΔTm as the shift of the melting midpoint relative to a reference. In the case of `N#Cc1cccc(NC2=NS(=O)(=O)c3ccccc32)c1`, in experiment [1], the ΔTm was determined as 0.07 °C.

In the case of `N#Cc1ccc2c(c1)C(Nc1cc(C(F)(F)F)cc(C(F)(F)F)c1)=NS2(=O)=O`, the outcome in experiment [2] was Active. Besides, the ΔTm in [1] worked out at 0.83 °C.

For the compound `[O-][s+]1cc(Nc2cc(C(F)(F)F)cc(C(F)(F)F)c2)c2ccccc21` (stereo unspecified), the Activity in experiment [3] came to 108%; in experiment [4] it was 127%; in experiment [5] it was 111%; in experiment [6] it was 87.4%. Also, the ΔTm in experiment [1] came to 0.17 °C.

As to `N#Cc1cc(NC2=NS(=O)(=O)c3ccccc32)cc(C(F)(F)F)c1`, in experiment [2], the outcome was Active. Also, the ΔTm in experiment [1] stood at 0.96 °C.

On to `O=S1(=O)N=C(Oc2cc(C(F)(F)F)cc(C(F)(F)F)c2)c2ccccc21`, for which the Activity in [4] was 124%; in [5] it was 105%; in experiment [6], 97.6%. Besides, the outcome in [2] was Active. Besides, the ΔTm in [1] is 0.07 °C.

`O=S1(=O)N=C(Nc2ccccc2)c2ccccc21`: the Activity in [3] was 96.3%; in experiment [4], 90%; in experiment [5], 140%; in [6] it was 126%. In addition, the ΔTm in experiment [1] came out at 0.02 °C.

As to `O=S1(=O)N=C(Nc2cc(F)cc(F)c2)c2ccc(Br)cc21`, in [1], the ΔTm is -0.06 °C.

In the case of `O=S1(=O)N=C(Nc2ccc(C(F)(F)F)cc2)c2ccccc21`, the Activity amounted to 76.8% in [3], 90% in experiment [4], 85.7% in experiment [5] and 95.1% in [6]. The result in [2] was Active. In experiment [1], the ΔTm worked out at 0.44 °C.

Regarding `COC(=O)c1cc(C#N)cc(NC2=NS(=O)(=O)c3ccccc32)c1`, in experiment [2], the result was Active. Moreover, the ΔTm in [1] was 1.28 °C.

In the case of `O=S1(=O)N=C(Nc2cc(C(F)(F)F)cc(C(F)(F)F)c2)c2ccccc21`, the Activity was 132% in [3], 55% in experiment [4], 161% in [5] and 272% in experiment [6]. Further, the outcome in [2] was Active. Besides, the ΔTm in experiment [1] came to 0.89 °C.

On to `CC(=O)c1cccc(NC2=NS(=O)(=O)c3ccccc32)c1`, for which, in [1], the ΔTm was -0.13 °C.

Consider `CN(C1=NS(=O)(=O)c2ccccc21)c1cc(C(F)(F)F)cc(C(F)(F)F)c1`, for which the figures for the Activity in [4], in experiment [5] and in [6] were 97%, 124% and 96.6%, respectively. Also, in experiment [2], the result was Active. The ΔTm in experiment [1] was 0.44 °C.

In the case of `O=S1(=O)N=C(Nc2cccc(F)c2F)c2ccccc21`, the ΔTm in experiment [1] is -0.15 °C.

Turning to `O=S1(=O)C=C(Nc2cc(C(F)(F)F)cc(C(F)(F)F)c2)c2ccccc21`, in [2], the outcome was Active. The ΔTm in [1] turned out to be 0.44 °C.

On to `O=S1(=O)N=C(Nc2cccc(C(F)(F)F)c2)c2ccccc21`, for which the Activity in experiment [3] is 80.9%; in experiment [4] it was 102%; in [5], 77.9%; in experiment [6], 89.4%. In addition, the result in experiment [2] was Active. The ΔTm in [1] came out at 0.74 °C.

For `FC(F)(F)c1cc(Nc2csc3ccccc23)cc(C(F)(F)F)c1`, the Activity in experiment [3] turned out to be 87.4%; in experiment [4] it was 62%; in experiment [5], 102%; in experiment [6], 92.1%. Also, the ΔTm in experiment [1] is 0.1 °C.

As for `O=S1(=O)N=C(Nc2ccccc2F)c2ccccc21`, the ΔTm in [1] amounted to 0.22 °C.

For `COC(=O)c1cc(NC2=NS(=O)(=O)c3ccccc32)cc(C(=O)OC)c1`, the shift in melting temperature (ΔTm) in experiment [1] stood at 0.02 °C.

In the case of `O=S1(=O)N=C(Nc2cc(C(F)(F)F)cc(C(F)(F)F)c2)c2ccc(Br)cc21`, in experiment [2], the result was Active. Besides, the ΔTm in experiment [1] came out at 0.07 °C.

On to `O=S1(=O)N=C(Nc2cc(C(F)(F)F)cc(C(F)(F)F)c2)c2cc(F)ccc21`, for which the ΔTm in [1] is -0.14 °C.

With `O=S1(=O)N=C(Nc2cc(C(F)(F)F)cc(C(F)(F)F)c2)c2cc(Cl)ccc21`, in experiment [1], the ΔTm is -0.1 °C.

Consider `O=S1(=O)N=C(Nc2cc(F)ccc2F)c2ccccc21`, for which the ΔTm in experiment [1] came out at 0.07 °C.

As to `COc1cc(NC2=NS(=O)(=O)c3ccccc32)cc(OC)c1`, the outcome in experiment [2] was Active. Further, the ΔTm in [1] was 0 °C.

On to `O=S1(=O)N=C(Nc2ccc(F)cc2)c2ccccc21`, for which, in experiment [1], the thermal shift (ΔTm) is 0.3 °C.

In the case of `CS(=O)(=O)c1cc(NC2=NS(=O)(=O)c3ccccc32)cc(S(C)(=O)=O)c1`, in experiment [1], the ΔTm was determined as 0 °C.

As for `O=S1(=O)N=C(Nc2cccc(F)c2)c2ccccc21`, the ΔTm in experiment [1] came to 0.17 °C.

As to `O=S1(=O)N=C(Nc2cc(F)cc(F)c2)c2cc(Br)ccc21`, the outcome in experiment [2] was Active. The ΔTm in experiment [1] came out at 0.37 °C.

For the compound `O=C(O)c1cc(NC2=NS(=O)(=O)c3ccccc32)cc(C(=O)O)c1`, the result in experiment [2] was Active. Also, in [1], the ΔTm was found to be 0.74 °C.

With `O=S1(=O)N=C(Nc2ccc(F)c(F)c2)c2ccccc21`, the result in experiment [2] was Active. The ΔTm in experiment [1] was 0.29 °C.

Turning to `O=S1(=O)N=C(Nc2ccc(F)cc2F)c2ccccc21`, the ΔTm in [1] amounted to 0.14 °C.

On to `COc1ccc2c(c1)C(Nc1cc(C(F)(F)F)cc(C(F)(F)F)c1)=NS2(=O)=O`, for which the ΔTm in [1] is -0.29 °C.

Consider `O=S1(=O)N=C(Nc2cc(F)cc(F)c2)c2ccccc21`, for which the Activity turned out to be 185% in experiment [3], 72% in experiment [4], 146% in experiment [5] and 214% in experiment [6]. In experiment [2], the outcome was Active. Further, the ΔTm in [1] is 0.55 °C.

Turning to `O=S1(=O)N=C(Nc2cc(C(F)(F)F)cc(C(F)(F)F)c2)c2cc(Br)ccc21`, the Activity in experiment [7] was 110%; in experiment [3], 218%; in experiment [4], 117%; in experiment [5], 265%; in experiment [8] it was 88%; in experiment [9] it was 93.3%. Moreover, the Activity in [6] was 432%; in experiment [10], 116%. In addition, in experiment [2], the result was Active. Also, in experiment [1], the ΔTm amounted to 0.87 °C.

These data come from ChEMBL document CHEMBL5236640, “SAR study of 1,2-benzisothiazole dioxide compounds that agonize HIF-2 stabilization and EPO production” (Bioorg Med Chem, 2023).
